# Source: PubChem BioAssay AID1850 (Southern Research Specialized Biocontainment Screening …, 2009)
# pIC50: −log10 of the molar value.
# Tested on: Salmonella Typhi PhoP-promoter GFP reporter, fluorescence, 4 h
# Test: Inhibition of PhoP regulon, Salmonella typhi GFP reporter cells, confirmation, 4 h (AID 1850)
row,SMILES,pIC50
1,Cc1ccc(C(=O)NNC(=S)NC(=O)COc2ccccc2)cc1,3.94
2,O=c1[nH]c(=S)ccn1C1OC(CO)C(O)C1O (stereo not drawn),4.54
3,O=C(CCN1CCN(c2ccccc2F)CC1)c1ccc(Br)cc1,4.41
4,CC1=C([N+](=O)[O-])C(c2cccc(Br)c2)C2=C(N1)c1ccccc1C2=O (stereo not drawn),4.74
5,CCOC(=O)N1CCC(=NNc2ccnc3cc(Cl)ccc23)CC1,4.45
6,CCn1cc(C(=O)NCc2ccc3c(c2)OCO3)c(=O)c2cc(F)c(N3CCN(C(=O)c4ccco4)CC3)cc21,3.86
7,CC(=O)NC(c1ccc2ccccc2c1)c1ccc2cccnc2c1O (stereo not drawn),3.98
8,Cc1ccc2c(c1)C1CN(C)CCC1N2Sc1ccccc1[N+](=O)[O-] (stereo not drawn),4.36
9,CNC[C@H](CC1CCCCC1)NC[C@H](Cc1ccccc1)NCCC12CC3CC(CC(C3)C1)C2,4.89
10,COc1ccc(CNCCc2ccc(Cl)cc2)cc1OCc1ccccc1,4.18
11,CC1(C)N=C(N)NC(Nc2cccc(Br)c2)=N1,4.46
12,Cc1ccc(NC(=O)c2ccccc2)s1,4.12
13,COc1ccccc1Nc1c2ccccc2nc2ccccc12,4.44
14,CC1(C)N=C(N)NC(Nc2ccc(Br)cc2)=N1,4.41
15,c1ccc2cc3c(NCCN4CCOCC4)ccnc3cc2c1,4.11
16,N=c1n(CC(=O)c2ccc(Br)s2)c2ccccc2n1Cc1ccccc1,4.29
17,O=C(O)c1cc2c(cn1)[nH]c1ccccc12,4.11
18,CC[C@@H](C)[C@H](CN[C@H](CNC)C(C)C)NC[C@@H](C)c1ccc(CC(C)C)cc1,4.13
19,CC(NCc1ccc(Cl)c(Cl)c1)C(O)c1ccccc1 (stereo not drawn),4.21
20,C[N+]12CN3CN(CN(C3)C1)C2,4.06

row,SMILES,pIC50
1,CC(C)(C)c1ccc(OCCCNC2CCCC2)cc1,4.08
2,O=C(CC(=O)c1ccccc1O)c1cccc(F)c1,4.68
3,Cc1cc(NC(=O)c2ccccc2)sc1C,4.21
4,CCN(CC)c1ccc(CNc2nc3ccccc3n2CCN2CCCCC2)cc1,4.28
5,Oc1cccc(C=NCc2ccccc2)c1O,4.29
6,Cc1[nH]c2ccc(OC(F)(F)F)cc2c1CCNCc1ccc(Cl)cc1,4.66
7,Oc1c(Br)cc(Br)cc1C=Nc1cccc2ncccc12,4.43
8,COc1cccc(Nc2nc(NCCO)c3ccccc3n2)c1,4.70
9,Cc1cc(NS(=O)(=O)c2ccc(NC(=O)Nc3cccc(Cl)c3)cc2)no1,3.83
10,Nc1[nH]ncc1-c1ccccc1,4.16
11,OCCN1CCN(CCCN2c3ccccc3Sc3ccc(C(F)(F)F)cc32)CC1,3.98
12,CN1CC=C(/C=C/c2ccc(-c3ccccc3)cc2)CC1,4.22
13,COc1ccc(NC2=NC3(CCCCC3)N=C(N)N2)cc1,4.13
14,OC(CNCCc1ccccc1)COc1ccc(OCC(O)CNCCc2ccccc2)cc1 (stereo not drawn),4.45
15,Cc1cc(C)c(NC(=O)C[N+](C)(C)CC(O)COc2cccc3ccccc23)c(C)c1 (stereo not drawn),4.33
16,N=c1c2c(n(Cc3cccc(Cl)c3)c3c1CCC3)CCCC2,4.19
17,CCc1ccc(-c2nn(-c3ccccc3)cc2CSC(=N)N)cc1,4.49
18,Cc1ccc(NC(=O)CN(C)C2CCCCC2)cc1Br,4.09
19,COc1c(N2CCNC(C)C2)c(F)cc2c(=O)c(C(=O)O)cn(C3CC3)c12 (stereo not drawn),6.54
20,C#CCOCCOCCOCCNc1nc(N2CCN(C(=O)CCCCCCCCCCNC(=O)[C@@H](CCSC)n3cc(CCO)nn3)CC2)nc(N2CCN(C(=O)CCCCCCCCCCNC(=O)[C@H]([C@@H](C)CC)n3cc(CCCCCN)nn3)CC2)n1,3.92

row,SMILES,pIC50
1,O=C(N/N=C/c1ccccc1O)C1SCCCS1,4.06
2,C=C1c2c(Cl)ccc(O)c2C(O)=C2C(=O)[C@]3(O)C(O)=C(C(N)=O)C(=O)[C@@H](N(C)C)[C@@H]3[C@@H](O)C12 (stereo partly drawn),6.10
3,Clc1ccc(OCCCNCc2ccccc2)c2ccccc12,4.72
4,S=C(Nc1ccc(Cl)c(Cl)c1)NC1CCN(Cc2ccccc2)CC1,4.47
5,N/C(=N\OS(=O)(=O)c1ccccc1)c1cccnc1,4.85
6,OCCNc1nc(Nc2ccccc2)nc2ccccc12,4.99
7,Cc1nnc(N/N=C/c2ccccn2)[nH]c1=O,4.48
8,CCn1cc(C(=O)NCCCN(C)C)c(=O)c2cc(F)c(N3CCN(C)CC3)cc21,4.69
9,COc1ccccc1CNCCc1ccc(F)cc1,4.61
10,O=C(N/N=C/c1cc(Cl)ccc1O)c1ccncc1,4.71
11,C=CC1=C(C(=O)O)N2C(=O)[C@@H](NC(=O)/C(=N\O)c3csc(N)n3)[C@H]2SC1 (stereo in doubt),4.72
12,Cc1ccc(C(=O)N/C(=C\c2ccc(-c3ccc(Br)cc3)o2)C(=O)NCCCN(C)C)cc1,4.43
13,CN1CCN(c2nc3cc(C(F)(F)F)ccc3n3cccc23)CC1,4.13
14,COc1cc(CNC2CCCC2)cc(Cl)c1OCc1ccccc1Cl,4.15
15,CC1=NN(c2nc3ccccc3[nH]2)C(=O)C1Cc1ccccc1 (stereo not drawn),4.30
16,O=S(=O)(Nc1c(S(=O)(=O)c2ccccc2)c2nc3ccccc3nc2n1C1CCCCC1)c1ccccc1,5.30
17,O=C(Nc1ccc(Cl)cc1)Nc1ccc2c(c1)N1CCN=C1S2,4.16
18,Clc1ccc(Nc2ccc(NCc3ccccc3)nn2)cc1,3.99
